Columns and labels:
mock-infected MT-4 cells = experiment: Cytotoxicity in mock-infected MT-4 cells (MTT); format: cell-based; details: concentration reducing absorbance of mock-infected MT-4 control by 50%
HIV-1 = details: for IC50: dose achieving 50% protection of HIV-infected MT-4 cells, MTT, OD 540 nm; for SI: selectivity index, ratio of CC50 to IC50
Description: A rapid, sensitive and automated assay procedure was used for the in vitro evaluation of anti-HIV agents. […] Inhibition of the HIV-induced cytopathic effect was used as the end point. The viability of both HIV- and mock-infected cells was assessed spectrophotometrically via the in situ reduction of 3-(4,5-dimethylthiazol-2-yl)-2,5-diphenyltetrazolium bromide (MTT). […] The percent protection achieved by the compound in HIV-infected cells was calculated by the following formula:
[formula] expressed in %, whereby (ODT)HIV is the optical density measured with a given concentration of the test compound in HIV-infected cells; (ODC)HIV is the optical density measured for the control untreated HIV-infected cells; (ODC)MOCK is the optical density measured for the control untreated mock-infected cells; all optical density values were determined at 540 nm. […] The ratio of CC50 to IC50 was defined as the selectivity index (SI).

| Compound | CC50 (mock-infected MT-4 cells) [nM] | IC50 (HIV-1) [nM] | SI (HIV-1) |
| --- | --- | --- | --- |
| Cc1cc(C)cc(Sc2c(CSCc3cccs3)c(C)[nH]c(=O)c2I)c1 [compound 8] | > 100000 | 10 | >10000 |
| Cc1cc(C)cc(Sc2c(/C=N/OCc3ccccc3)c(C)[nH]c(=O)c2I)c1 [compound 31] | > 100000 | 7.9 | >12589 |
| CON=Cc1c(C)[nH]c(=O)c(I)c1Sc1cc(C)cc(C)c1 [compound 46] | > 100000 | 2 | >50119 |
| CCc1c(C)[nH]c(=O)c(I)c1Oc1cc(C)cc(CCl)c1 [compound 81] | 13000 | 6.3 | 1995 |
| CCc1c(C)[nH]c(=O)c(I)c1Oc1cc(C)cc(/C=C/C#N)c1 [compound 83] | 8000 | 2.5 | 3162 |
| CCc1c(C)[nH]c(=O)c(I)c1Sc1cccc(C)c1 [compound 88] | > 100000 | 2.5 | >39811 |
| Cc1cc(C)cc(Oc2c(CSCc3ccccc3)c(C)[nH]c(=O)c2I)c1 [compound 92] | > 32000 | 6.3 | >5012 |
| CCOC(=O)CSCc1c(C)[nH]c(=O)c(I)c1Oc1cc(C)cc(C)c1 [compound 99] | > 100000 | 10 | >10000 |
| CCc1c(COC(N)=O)[nH]c(=O)c(I)c1Oc1cc(C)cc(C)c1 [compound 105] | > 10000 | 2 | >5012 |
| CCc1c(C)[nH]c(=O)c(Br)c1Sc1cc(C)cc(C)c1 [compound 109] | 32000 | 2.5 | 12589 |
| CCc1c(C)[nH]c(=O)c(I)c1Sc1cc(Cl)cc(Cl)c1 [compound 115] | 8000 | 2.5 | 3162 |
| CCc1c(C)[nH]c(=O)c(I)c1Oc1cccc(N)c1 [compound 121] | > 100000 | 10 | >10000 |
| CCSCc1c(C)[nH]c(=O)c(I)c1Oc1cc(C)cc(C)c1 [compound 124] | > 10000 | 1.3 | >7943 |
| Cc1cc(C)cc(Oc2c(C=CC#N)c(C)[nH]c(=O)c2I)c1 [compound 140] | > 10000 | 6.3 | >1585 |
| Cc1cc(C)cc(Oc2c(CNC(=O)c3cc4ccccc4o3)c(C)[nH]c(=O)c2I)c1 [compound 143] | > 10000 | 6.3 | >1585 |
| CCc1c(CCCO)[nH]c(=O)c(I)c1Oc1cc(C)cc(C)c1 [compound 217] | > 10000 | 6.3 | >1585 |
| CCOC(=O)NCc1c(C)[nH]c(=O)c(I)c1Oc1cc(C)cc(C)c1 [compound 218] | > 10000 | 7.9 | >1259 |
| Cc1cc(C)cc(Oc2c(CNC=O)c(C)[nH]c(=O)c2I)c1 [compound 219] | > 32000 | 10 | >3162 |
| Cc1cccc(Sc2c3c([nH]c(=O)c2I)CCCCC3)c1 [compound 221] | > 20000 | 6.3 | >3162 |
| Cc1cccc(Sc2c3c([nH]c(=O)c2I)CCCC3)c1 [compound 222] | 2000 | 7.9 | 251 |
| CCc1c(C)[nH]c(=O)c(C2CC2)c1Oc1cc(C)cc(C)c1 [compound 230] | 8000 | 6.3 | 1259 |

| Compound | CC50 (mock-infected MT-4 cells) [nM] | IC50 (HIV-1) [nM] | SI (HIV-1) |
| --- | --- | --- | --- |
| CON=Cc1c(C)[nH]c(=O)c(I)c1Oc1cc(C)cc(C)c1 [compound 232] | > 32000 | 6.3 | >5012 |
| Cc1cc(C)cc(Oc2c(CCO)c(C)[nH]c(=O)c2I)c1 [compound 241] | > 100000 | 1.6 | >63096 |
| Cc1cc(C)cc(Oc2c(CCCO)c(C)[nH]c(=O)c2I)c1 [compound 242] | > 100000 | 0.6 | >158489 |
| Cc1cc(C)cc(Oc2c(COCc3ccsc3)c(C)[nH]c(=O)c2I)c1 [compound 244] | > 100000 | 4 | >25119 |
| Cc1cc(C)cc(Oc2c(COCc3ccccc3)c(C)[nH]c(=O)c2I)c1 [compound 245] | > 100000 | 6.3 | >15849 |
| COc1ccccc1Cc1c(C)[nH]c(=O)c(I)c1Oc1cc(C)cc(C)c1 [compound 249] | > 32000 | 1.3 | >25119 |
| Cc1cc(C)cc(Oc2c(CCCOCc3ccccc3)c(C)[nH]c(=O)c2I)c1 [compound 250] | 25000 | 5 | 5012 |
| COCCOCc1c(C)[nH]c(=O)c(I)c1Oc1cc(C)cc(C)c1 [compound 253] | > 10000 | 1.6 | >6310 |
| Cc1cc(C)cc(Oc2c(COCCO)c(C)[nH]c(=O)c2I)c1 [compound 254] | > 32000 | 2 | >15849 |
| CCOCc1c[nH]c(=O)c(I)c1Oc1cc(C)cc(C)c1 [compound 256] | > 10000 | 2 | >5012 |
| COCCc1c(C)[nH]c(=O)c(I)c1Oc1cc(C)cc(C)c1 [compound 264] | > 10000 | 1 | >10000 |
| CCc1c(C)[nH]c(=O)c(SC)c1Oc1cc(C)cc(C)c1 [compound 272] | 25000 | 2 | 12589 |
| CCc1c(C)[nH]c(=O)c(OC)c1Oc1cc(C)cc(C)c1 [compound 277] | > 100000 | 2.5 | >39811 |
| CCc1c(C)[nH]c(=O)c(Sc2ccccc2)c1Oc1cc(C)cc(C)c1 [compound 280] | 25000 | 10 | 2512 |
| CCc1c(C)[nH]c(=O)c(Br)c1Oc1cc(C)cc(C)c1 [compound 284] | > 10000 | 2 | >5012 |
| CCc1c(C)[nH]c(=O)c(I)c1Cc1cccc(C)c1 [compound 286] | > 32000 | 2.5 | >12589 |
| C=Cc1cccc(Oc2c(CC)c(C)[nH]c(=O)c2I)c1 [compound 296] | 25000 | 2 | 12589 |
| CCc1c(C)[nH]c(=O)c(I)c1Oc1cccc([N+](=O)[O-])c1 [compound 297] | > 32000 | 4 | >7943 |
| CCc1c(C)[nH]c(=O)c(I)c1Oc1cccc(/C=C/C=C/C#N)c1 [compound 299] | – | 2.5 | 32 |
| CCc1c(C)[nH]c(=O)c(I)c1Oc1cccc(C)c1 [compound 306] | > 32000 | 1.6 | >19953 |
| CCc1c(C)[nH]c(=O)c(I)c1Oc1cccc(Br)c1 [compound 307] | > 32000 | 5 | >6310 |

| Compound | CC50 (mock-infected MT-4 cells) [nM] | IC50 (HIV-1) [nM] | SI (HIV-1) |
| --- | --- | --- | --- |
| CCc1c(C)[nH]c(=O)c(I)c1Oc1cccc(C=CC=NO)c1 [compound 309] | 10000 | 6.3 | 1585 |
| CCc1c[nH]c(=O)c(I)c1Oc1cccc(C)c1 [compound 314] | > 32000 | 7.9 | >3981 |
| CCc1c(C)[nH]c(=O)c(I)c1Oc1cccc(/C=C/C#N)c1 [compound 319] | > 100000 | 2 | >50119 |
| CCc1c(C)[nH]c(=O)c(I)c1Oc1cccc(C=O)c1 [compound 321] | > 100000 | 6.3 | >15849 |
| CCc1c(C)[nH]c(=O)c(I)c1Oc1cccc(CO)c1 [compound 322] | > 100000 | 6.3 | >15849 |
| CCOC(=O)c1c(Oc2cc(C)cc(C)c2)c(CC)c(C)[nH]c1=O [compound 324] | 32000 | 5 | 6310 |
| CCc1c(C)[nH]c(=O)c(I)c1Oc1ccccc1 [compound 328] | > 100000 | 1.6 | >63096 |
| Cc1cc(C)cc(Oc2c(CSCc3ccco3)c(C)[nH]c(=O)c2I)c1 [compound 375] | > 100000 | 1.3 | >79433 |
| CCc1c(C)[nH]c(=O)c(C(F)(F)F)c1Oc1cc(C)cc(C)c1 [compound 409] | 40000 | 3.2 | 12589 |
| CCc1c(C)[nH]c(=O)c(I)c1Oc1cc(C)cc(/C=C/C#N)c1 [compound 551] | 13000 | 1 | 12589 |
| Cc1cc(C)cc(Oc2c(Cn3cncn3)c(C)[nH]c(=O)c2I)c1 [compound 574] | > 100000 | 2 | >50119 |
| Cc1cc(C)cc(Sc2c(Cn3cccn3)c(C)[nH]c(=O)c2I)c1 [compound 589] | > 10000 | 1.3 | >7943 |
| Cc1cc(C)cc(Sc2c(Cn3ccnc3)c(C)[nH]c(=O)c2I)c1 [compound 606] | 20000 | 1.3 | 15849 |
| Cc1cc(C)cc(Sc2c(Cn3cccc3)c(C)[nH]c(=O)c2I)c1 [compound 618] | 50000 | 2 | 25119 |
| CCc1c(C)[nH]c(=O)c(I)c1Oc1cc(/C(C)=C/C#N)cc(/C(C)=C/C#N)c1 [compound 684] | > 100000 | 0.8 | >125893 |
| CC(=O)c1ccc(N2CCN(Cc3c(C)[nH]c(=O)c(I)c3Oc3cc(C)cc(C)c3)CC2)cc1 [compound 694] | 63000 | 10 | – |
| Cc1cc(C)cc(Oc2c(CN3CCN(c4ccccn4)CC3)c(C)[nH]c(=O)c2I)c1 [compound 696] | > 40000 | 15.8 | >2512 |
| Cc1cc(C)cc(Oc2c(CN3CCN(C(=O)c4ccco4)CC3)c(C)[nH]c(=O)c2I)c1 [compound 700] | > 8000 | 7.9 | >1000 |
| CC(=O)N1CCN(Cc2c(C)[nH]c(=O)c(I)c2Oc2cc(C)cc(C)c2)CC1 [compound 701] | 63000 | 10 | 6310 |

Source: patent US7115608B2, “Pyridinone and pyridinethione derivatives having HIV inhibiting properties” (Centre National de la Recherche Schentifique, priority 2000, dated 2006)
